# According to BindingDB's records for doi:10.1021/jm00106a047 (Purdue University, 1991):
# Molecular target: Tyrosine-protein kinase Lck (Bos taurus)
# Test: Ability to inhibit protein-tyrosine kinase activity of p56lck (isolated from bovine thymus) in vitro.
row,SMILES,IC50
1,CCOC(=O)CC(=O)c1ccccc1O,> 2000 µM
2,COC(=O)c1c(-c2ccc(OCc3ccccc3)cc2)oc2ccccc2c1=O,> 2000 µM
3,O=c1cc(-c2ccc([N+](=O)[O-])cc2)oc2cc(O)ccc12,> 2000 µM
4,COC(=O)c1c(-c2ccc(O)cc2)oc2ccc(OC)cc2c1=O,> 2000 µM
5,COC(=O)CC(=O)c1ccc(O)c(O)c1O,> 2000 µM
6,O=c1cc(-c2ccc([N+](=O)[O-])cc2)oc2ccc(O)cc12,> 2000 µM
7,COC(=O)c1c(-c2ccc(OCc3ccccc3)cc2)oc2ccc(OC)cc2c1=O [2-(4-Benzyloxy-phenyl)-6-methoxy-4-oxo-4H-chromene-3-carboxylic acid methyl ester],> 2000 µM
8,"Nc1ccc(-c2cc(=O)c3ccc(O)cc3o2)cc1 [7-Hydroxy-flavone, 6]",138 µM
9,COC(=O)c1c(-c2ccc(NC(C)=O)cc2)oc2ccc(OC)cc2c1=O,> 2000 µM
10,COc1ccc2c(=O)c(C(=O)O)c(-c3ccc([N+](=O)[O-])cc3)oc2c1,> 2000 µM
11,COC(=O)c1c(-c2cc(OC)c(OC)c(OC)c2)oc2ccccc2c1=O,> 2000 µM
12,COC(=O)c1c(-c2ccc(OC)cc2)oc2ccccc2c1=O [methyl 2-(4-methoxyphenyl)-4-oxo-4H-chromene-3-carboxylate],> 2000 µM
13,COc1ccc(-c2oc3ccccc3c(=O)c2C(=O)O)cc1 [2-(4-methoxyphenyl)-4-oxo-4H-chromene-3-carboxylic acid],> 2000 µM
14,COc1cc(OC)cc(-c2oc3ccccc3c(=O)c2C(=O)O)c1,> 2000 µM
15,COC(=O)c1c(-c2ccc([N+](=O)[O-])cc2)oc2cc(OCc3ccccc3)cc(OCc3ccccc3)c2c1=O,> 2000 µM
16,COC(=O)CC(=O)c1ccc(OC)cc1O,1160 µM
17,COc1ccc2c(=O)c(C(=O)O)c(-c3ccc(O)cc3)oc2c1,1030 µM
18,O=C(O)c1c(-c2ccc([N+](=O)[O-])cc2)oc2ccccc2c1=O [2-(4-nitrophenyl)-4-oxo-4H-chromene-3-carboxylic acid],> 2000 µM
19,COC(=O)c1c(-c2ccc([N+](=O)[O-])cc2)oc2cc(OC)ccc2c1=O [methyl 7-methoxy-2-(4-nitrophenyl)-4-oxo-4H-chromene-3-carboxylate],> 2000 µM

row,SMILES,IC50
1,COC(=O)c1c(-c2ccc(O)cc2)oc2ccccc2c1=O,439 µM
2,Nc1ccc(-c2cc(=O)c3cc(O)ccc3o2)cc1 [2-(4-aminophenyl)-6-hydroxy-4H-chromen-4-one],1.2 µM
3,"COC(=O)c1c(-c2ccc(OC)c(OC)c2)oc2ccccc2c1=O [methyl 2-(3,4-dimethoxyphenyl)-4-oxo-4H-chromene-3-carboxylate]",> 2000 µM
4,COC(=O)CC(=O)c1cc(OC)ccc1O,> 2000 µM
5,COc1ccc2oc(-c3ccc([N+](=O)[O-])cc3)c(C(=O)O)c(=O)c2c1,> 2000 µM
6,O=C(O)c1c(-c2ccc([N+](=O)[O-])cc2)oc2cc(O)cc(=O)c-2c1O,> 2000 µM
7,CCOC(=O)CC(=O)c1c(O)cc(OCc2ccccc2)cc1OCc1ccccc1,> 2000 µM
8,COc1cc(-c2oc3ccccc3c(=O)c2C(=O)O)cc(OC)c1OC,> 2000 µM
9,O=C(O)c1c(-c2ccc(O)cc2)oc2ccccc2c1=O,1600 µM
10,COC(=O)c1c(-c2ccc(NC(=O)c3cc(OC)c(OC)c(OC)c3)cc2)oc2ccccc2c1=O,> 2000 µM
11,"COc1ccc(-c2oc3ccccc3c(=O)c2C(=O)O)cc1OC [2-(3,4-Dimethoxy-phenyl)-4-oxo-4H-chromene-3-carboxylic acid]",> 2000 µM
12,COC(=O)CC(=O)c1ccccc1O,> 2000 µM
13,COC(=O)c1c(-c2cc(OC)cc(OC)c2)oc2ccccc2c1=O,> 2000 µM
14,COC(=O)c1c(-c2ccc(N)cc2)oc2ccccc2c1=O,810 µM
15,COC(=O)c1c(-c2ccc(O)cc2)oc2cc(OC)ccc2c1=O,> 2000 µM
16,"COc1cc(-c2cc(=O)c3ccccc3o2)cc(OC)c1O [3',5'-dimethoxy-4'-hydroxyflavone]",26 µM
17,COC(=O)c1c(-c2ccc(Br)cc2)oc2ccccc2c1=O,> 2000 µM
18,COC(=O)c1c(-c2ccc([N+](=O)[O-])cc2)oc2ccccc2c1=O,> 2000 µM
19,O=C(O)c1c(-c2ccc(Br)cc2)oc2ccccc2c1=O,> 2000 µM
